pEC50, pIC50: −log10 of the molar value. “And” between values parts separate entries of the source, which are not always exact repeats. Equal entries are not always repeated. Where two headings read alike, the source gives them in different places.
Legend:
[1] = tested on: TAMH cells transfected with Neo vector (Neo); assay: Cytotoxicity / apoptosis induction in TAMH cells transfected with Neo vector; format: cell-based; conditions: for pIC50: read-out: IC50 TAMH Neo
Experimental: (§1) To examine the sensitivity of cells over-expressing Bcl-xL to various mitochondrial inhibitors and apoptosis inducers, cell lines over-expressing Bcl-xL were prepared and tested according to Hockenberry et al. U.S. Pat. No. 7,241,804, hereby incorporated by reference in its entirety. Competitive binding of compounds with fluorescent antimycin A3, and competitive binding of compounds with BH3 peptide and Bcl-2. Competitive binding of compounds with BH-3 peptide were also measured using Bcl-xL as previously described. Id.
(§2) Cell lines were grown in RPMI 1640 medium (Gibco, Grand Island, N.Y.) supplemented with 5% fetal bovine serum (Hyclone, Logan, Utah). Also shown is the ratio of TAMH cells expressing Bcl-xL to those expressing A142L (WT:142L). The assay measures the potency of various compounds with respect to inducing apoptosis in these cells.
(§3) The compounds described in Example 2 were tested for their ability to inhibit Bcl-2 gain-of-function in TAMH cells, TAMH cells overexpressing […] (TAMH-Bcl-xL), TAMH cells transfected with Neo vector (Neo), TAMH cells over expressing a variant of Bcl-xL (A142L) using the methods of Example 1. 3-6.
(§4) The effects of the compounds described in Example 8 on TAMH cells, TAMH cells overexpressing Bcl-xL (TAMH-Bcl-xL), TAMH cells transfected with Neo vector (Neo), TAMH cells over expressing a variant of Bcl-xL (A142L) is shown in Table 8
(§5) The effects of the compounds described in Example 10 on TAMH cells, TAMH cells overexpressing Bcl-xL (TAMH-Bcl-xL), TAMH cells transfected with Neo vector (Neo), TAMH cells over expressing a variant of Bcl-xL (A142L) is shown in the following Table 10

[2] = tested on: TAMH cells overexpressing Bcl-xL (TAMH-Bcl-xL, Tabx2s); assay: Cytotoxicity / apoptosis induction in TAMH cells overexpressing Bcl-xL; format: cell-based; conditions: for Neo/Bcl-xL: selectivity ratio
Experimental: as §1, §2, §3, §4, §5

[3] = Table 5, TAMH Neo cells, read-out: Neo EC50
[4] = Table 5, TAMH cells overexpressing Bcl-xL (Tabx2s), read-out: 2S EC50
[5] = Table 10, read-out: IC50 TAMH Bcl-XL
[6] = Table 13, read-out: IC50 TAMH Bcl-xL

| SMILES | pIC50 ([1]; Table 10) | Fold Select. (Neo/Bcl-XL) ([2]; Table 10) | pIC50 [2, 5] | further results |
| --- | --- | --- | --- | --- |
| COc1ccc(C)cc1Cc1cc(C)cc(Cc2cc(C)ccc2O)c1OC [Compound 0036] |  |  |  | pEC50 [1, 3]: 4.76; pEC50 [2, 4]: 5.72 |
| Cc1cc(Cc2cc(Br)ccc2O)c(O)c(Cc2cc(Br)ccc2O)c1 [Compound 0039] |  |  |  | pEC50 [1, 3]: 5.54; pEC50 [2, 4]: 6.15 |
| O=[N+]([O-])c1ccc(S(=O)(=O)c2ccccc2)c2nonc12 [Compound 0219] |  |  |  | pEC50 ([2]; Table 6, TAMH cells overexpressing Bcl-xL (Tabx2s), read-out: 2S EC50): 5.12 |
| O=C(/N=C/c1cc(Br)cc(Br)c1O)c1ccc(C(F)(F)F)cn1 [Compound 0298] |  |  |  | pEC50 ([1]; Table 3, TAMH Neo cells, read-out: Neo EC50): 4.89; pEC50 ([2]; Table 3, TAMH cells overexpressing Bcl-xL (Tabx2s), read-out: 2S EC50): 5.64 |
| Oc1ccc(Br)cc1Sc1cc(Br)ccc1O [Compound 1049] | 5.38 | 2.2 | 5.72 |  |
| O=S(=O)(c1cc(Br)ccc1O)c1cc(Br)ccc1O [Compound 1050] | 4.98 | 2.8 | 5.42 |  |
| CC(C)(C)c1ccc(O)c(Sc2cc(C(C)(C)C)ccc2O)c1 [Compound 2855] |  |  |  | Fold Select. (Neo/Bcl-XL) ([2]; Table 11): 0 |
| Oc1ccc(Cl)cc1Sc1cc(Cl)ccc1O [Compound 4112] | 5.33 | 2.3 | 5.70 |  |
| CC(=O)Nc1ccc(Sc2ccc(NC(C)=O)cc2O)c(O)c1 [Compound 4581] |  |  |  | Fold Select. (Neo/Bcl-XL) ([2]; Table 11): 0 |
| O=C(c1cc(Br)ccc1O)c1cc(Br)ccc1O [Compound 4631] | 4.85 | 1.7 | 5.07 |  |
| Cc1c(Cl)cc(C(C)(C)C)c(O)c1Cc1c(C)c(Cl)cc(C(C)(C)C)c1O [Compound 5857] | 4.90 | 2.8 | 5.35 |  |
| Oc1ccc2ccccc2c1Cc1c(O)ccc2ccccc12 [Compound 5992] | 4.91 and 5.10 |  | 5.52 and 5.36 |  |
| Cc1cc(Cc2cc(C)c(N)cc2N)c(N)cc1N [Compound 7215] |  |  |  | Fold Select. (Neo/Bcl-XL) ([2]; Table 11): 0 |
| Cc1cc(Cc2cc(C)cc(C(C)(C)C)c2O)c(O)c(C(C)(C)C)c1 [Compound 7781] | 5.35 | 2.8 | 5.80 |  |
| CCc1cc(Cc2cc(CC)cc(C(C)(C)C)c2O)c(O)c(C(C)(C)C)c1 [Compound 7782] | 5.46 | 1.7 | 5.68 |  |
| Oc1c(Cl)cc(Cl)cc1Sc1cc(Cl)cc(Cl)c1O [Compound 9872] | 5.12 | 3.3 | 5.64 |  |
| Cc1c(Cl)c(C)c(Sc2c(C)c(Cl)c(C)c(Br)c2O)c(O)c1Br [Compound 9874] | 5.70 | 2.8 | 6.15 |  |
| Cc1cc(O)c(Sc2c(O)cc(C)c(Cl)c2C)c(C)c1Cl [Compound 9875] | 5.24 | 6.3 | 6.05 |  |
| [O-][S+](c1cc(Cl)ccc1O)c1cc(Cl)ccc1O [Compound 24019] | 4.49 | 5.7 | 5.25 |  |
| CN(C)Cc1cc(Cl)cc(Cc2cc(Cl)cc(CN(C)C)c2O)c1O.Cl [Compound 39242] |  |  |  | Fold Select. (Neo/Bcl-XL) ([2]; Table 11): 0 |
| CC(C)c1ccc(Sc2ccc(C(C)C)cc2O)c(O)c1 [Compound 39635] | 5.11 | 1.3 | 5.37 |  |
| Oc1c(Cl)cc(Cl)cc1Sc1cc(Cl)cc(Cl)c1O [Compound 47129] | 5.64 | 4.6 | 6.30 |  |
| Cc1cc(C)c(O)c(CNCc2ccccc2)c1 [Compound 47911] |  |  |  | pEC50 ([1]; Mus musculus, TAMH, Table 8, read-out: TANH Neo): 4.50; pEC50 ([1]; Mus musculus, TAMH, Table 20, read-out: Neo): 4.50; pEC50 ([2]; Mus musculus, TAMH, Table 8, read-out: TAMH Bcl-xL): 5.39; pEC50 ([2]; Mus musculus, TAMH, Table 20, read-out: Bcl-XL): 5.39; Neo/Bcl-xL ([2]; Table 8): 7.8; Neo/Bcl-XL ([2]; Table 20): 7.8 |
| Oc1ccc(Cl)cc1Cc1cc(Cl)cc(Cc2cc(Cl)ccc2O)c1O [Compound 47932] |  |  |  | pEC50 ([1]; Table 8, read-out: TANH Neo): 5.46; pIC50 ([1]; Table 13): 5.46; pEC50 ([2]; Table 8, read-out: TAMH Bcl-xL): 6.30; Neo/Bcl-xL ([2]; Table 8): 7; Fold Select. (Neo/Bcl-xL) ([2]; Table 13): 7; pIC50 [2, 6]: 6.30 |
| Cc1cc(C)c(O)c(Cc2cc(Cl)cc(Cc3cc(C)cc(C)c3O)c2O)c1 [Compound 48167] |  |  |  | pIC50 ([1]; Table 13): 5.25; Fold Select. (Neo/Bcl-xL) ([2]; Table 13): 4; pIC50 [2, 6]: 5.85 |

Reference: patent US8865901B2, “Gain-of-function Bcl-2 inhibitors” (priority 2009, dated 2014)
